Results: ChEMBL document CHEMBL1201862, “PubChem BioAssay data set” (2004)
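Where inhibition never reached the appropriate level, the endpoint shown equals the highest concentration tested. Otherwise, values were interpolated linearly from a five-concentration, 48-hour dose response in 96-well plates. Here, GI50 denotes the concentration required for 50% inhibition of growth.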 The source made the active and inactive calls. Rule as the data show it: active = GI50 up to about 1.1 µM and inactive = higher.

Experiments:
Test in all cases: NCI tumour cell line growth inhibition, 48 h
RXF 631 = system: RXF 631
LXFL 529 = system: LXFL 529
DLD-1 = system: DLD-1
XF498 = system: XF498
SNB-78 = system: SNB-78
DMS-114 = system: DMS-114
HOP-18 = system: HOP-18
M19-MEL = system: M19-MEL
DMS-273 = system: DMS-273

What does the source list for `[N-]=[N+]=NC12CC3C4CC5CC3C(C1)C(C5)C4C2`?
GI50 (RXF 631): > 100 µM (inactive); GI50 (LXFL 529): > 100 µM (inactive); GI50 (DLD-1): > 100 µM (inactive); GI50 (XF498): > 100 µM (inactive); GI50 (SNB-78): > 100 µM (inactive); GI50 (DMS-114): > 100 µM (inactive); GI50 (HOP-18): > 100 µM (inactive); GI50 (M19-MEL): > 100 µM (inactive); GI50 (DMS-273): > 100 µM (inactive)

Which GI50 (LXFL 529) does the source give for `CN(C)c1ccc(/C=C2\C=Cc3ccccc32)cc1` here?
The GI50 was 56.4 µM (inactive).

And the GI50 (DLD-1)?
The GI50 was 51.8 µM (inactive).

And the GI50 (DMS-114)?
The GI50 was 22.1 µM (inactive).

What about the GI50 (HOP-18) of the same molecule?
Its GI50 is > 100 µM (inactive).

And the GI50 (M19-MEL)?
The GI50 was > 100 µM (inactive).

And the GI50 (DMS-273)?
The GI50 was 36.7 µM (inactive).

`COc1cc(C2c3cc4c(cc3[C@@H](Nc3cccc(O)c3)C3COC(=O)[C@H]23)OCO4)cc(OC)c1O` (some centres undefined) was tested. Which GI50 (LXFL 529) did it give?
The GI50 was 2.55 µM (inactive).

What about the GI50 (DLD-1) of the same molecule?
Its GI50 is 3.56 µM (inactive).

And the GI50 (XF498)?
The GI50 was 0.766 µM (active).

What about the GI50 (SNB-78) of the same molecule?
The GI50 was 6.03 µM (inactive).

What about the GI50 (DMS-114) of the same molecule?
Its GI50 is 0.794 µM (active).

What about the GI50 (HOP-18) of the same molecule?
The GI50 was 8.59 µM (inactive).

What about the GI50 (M19-MEL) of the same molecule?
The GI50 was 1.97 µM (inactive).

And the GI50 (DMS-273)?
The GI50 was 0.887 µM (active).

How did the GI50 (RXF 631) turn out when `CCOC(=O)NC(=O)c1cn(CCCOC(=O)CCCCCCCCC(=O)OCCCn2cc(C(=O)NC(=O)OCC)c(=O)n(C)c2=O)c(=O)n(C)c1=O` was run?
Its GI50 is > 80.7 µM (inactive).

What about the GI50 (LXFL 529) of the same molecule?
Its GI50 is > 100 µM (inactive).

What about the GI50 (DLD-1) of the same molecule?
Its GI50 is > 100 µM (inactive).

And the GI50 (XF498)?
The GI50 was > 54.3 µM (inactive).

And the GI50 (DMS-114)?
The GI50 was > 100 µM (inactive).

And the GI50 (HOP-18)?
Its GI50 is > 100 µM (inactive).

And the GI50 (M19-MEL)?
The GI50 was > 100 µM (inactive).

What about the GI50 (DMS-273) of the same molecule?
Its GI50 is > 100 µM (inactive).

Which results are given for `Cc1nc(O)nc(CC(O)(c2ccccc2)c2ccccc2)c1-c1ccccc1`?
GI50 (RXF 631): > 100 µM (inactive); GI50 (LXFL 529): > 100 µM (inactive); GI50 (DLD-1): > 100 µM (inactive); GI50 (SNB-78): > 100 µM (inactive); GI50 (DMS-114): 80.5 µM (inactive); GI50 (HOP-18): > 100 µM (inactive); GI50 (M19-MEL): > 100 µM (inactive); GI50 (DMS-273): > 100 µM (inactive)

Which results are given for `CCOC(=O)C12CCSC1C1(C#N)C(C#N)=CC2(N=P(c2ccccc2)(c2ccccc2)c2ccccc2)n2c(=O)n(-c3ccccc3)c(=O)n21` (centres undefined)?
GI50 (RXF 631): 70 µM (inactive); GI50 (LXFL 529): 28.8 µM (inactive); GI50 (DLD-1): 35.9 µM (inactive); GI50 (XF498): 24.3 µM (inactive); GI50 (SNB-78): 68.5 µM (inactive); GI50 (DMS-114): 29.4 µM (inactive); GI50 (M19-MEL): 33.4 µM (inactive)

What does the source list for `CC1(O)CC2(O)C=CC3=C(C(=O)c4cccc(O)c4C3=O)C2(O)C(=O)C1O` (centres undefined)?
GI50 (LXFL 529): 0.495 µM (active); GI50 (DLD-1): 0.791 µM (active); GI50 (DMS-114): 1.67 µM (inactive); GI50 (HOP-18): 1.7 µM (inactive); GI50 (M19-MEL): 0.646 µM (active); GI50 (DMS-273): 5.08 µM (inactive)

With `Cn1c2cc([N+](=O)[O-])ccc2c(=O)c2c(O)cc3c(c21)C=CC(C)(C)O3` as the molecule, how does the GI50 (LXFL 529) read?
Its GI50 is 28.4 µM (inactive).

And the GI50 (DLD-1)?
Its GI50 is > 100 µM (inactive).

What about the GI50 (XF498) of the same molecule?
The GI50 was 21 µM (inactive).

What about the GI50 (SNB-78) of the same molecule?
Its GI50 is 40.5 µM (inactive).

And the GI50 (HOP-18)?
Its GI50 is < 0.01 µM (active).

What about the GI50 (DMS-273) of the same molecule?
Its GI50 is 54 µM (inactive).

Which results are given for `N#Cc1ccc(Nc2cnc3cc(N)ccc3n2)cc1`?
GI50 (LXFL 529): 59.7 µM (inactive); GI50 (DLD-1): > 100 µM (inactive); GI50 (XF498): 74.6 µM (inactive); GI50 (SNB-78): > 100 µM (inactive); GI50 (DMS-114): 60.5 µM (inactive); GI50 (M19-MEL): 89.7 µM (inactive); GI50 (DMS-273): > 100 µM (inactive)

How did the GI50 (LXFL 529) turn out when `Cc1nc(Nc2ccccc2)sc1C(=O)CC(=O)C(=O)NC12CC3CC(CC(C3)C1)C2` was run?
The GI50 was 99.5 µM (inactive).

And the GI50 (DLD-1)?
Its GI50 is 80.5 µM (inactive).

And the GI50 (XF498)?
The GI50 was > 100 µM (inactive).

What about the GI50 (SNB-78) of the same molecule?
Its GI50 is > 100 µM (inactive).

And the GI50 (DMS-114)?
Its GI50 is 78.7 µM (inactive).

And the GI50 (HOP-18)?
The GI50 was > 100 µM (inactive).

What about the GI50 (M19-MEL) of the same molecule?
Its GI50 is > 100 µM (inactive).

What about the GI50 (DMS-273) of the same molecule?
The GI50 was > 100 µM (inactive).

Which results are given for `OCCN(CCO)c1ncnc2c1sc(=S)n2-c1ccccc1`?
GI50 (LXFL 529): > 100 µM (inactive); GI50 (DLD-1): > 100 µM (inactive); GI50 (XF498): > 100 µM (inactive); GI50 (SNB-78): > 100 µM (inactive); GI50 (DMS-114): > 100 µM (inactive); GI50 (HOP-18): > 100 µM (inactive); GI50 (M19-MEL): > 100 µM (inactive); GI50 (DMS-273): > 100 µM (inactive)

Which GI50 (RXF 631) does the source give for `NCCNc1cccc2ccccc12` here?
The GI50 was > 100 µM (inactive).

And the GI50 (LXFL 529)?
The GI50 was > 100 µM (inactive).

And the GI50 (DLD-1)?
The GI50 was > 100 µM (inactive).

And the GI50 (SNB-78)?
Its GI50 is > 100 µM (inactive).

What about the GI50 (DMS-114) of the same molecule?
Its GI50 is > 100 µM (inactive).

And the GI50 (HOP-18)?
The GI50 was > 100 µM (inactive).

What about the GI50 (M19-MEL) of the same molecule?
The GI50 was > 100 µM (inactive).

What about the GI50 (DMS-273) of the same molecule?
Its GI50 is > 100 µM (inactive).
